Results taken from patent publication US12630544B2, “Compound, α-synuclein aggregate binder, and use thereof” (NATIONAL INSTITUTES FOR QUANTUM SCIENCE AND TECHNOLOGY, priority 2020, dated 2026).

Experiments:
α-synuclein aggregates [1] = target: T1, α-synuclein aggregates (Mus musculus, UniProt O55042); experiment: In vivo PET imaging of mouse brain (α-synuclein fibril-inoculated mouse vs physiological saline-injected mouse); conditions: intravenous injection of 18F-labeled compound, 90 minutes scan
T1 construct: from tissue; host or cells: brain of C57/BL/6 mouse inoculated in the striatum with recombinant (E. coli) mouse α-synuclein fibrils; sections or living animal
Procedure: First, mouse α-synuclein was expressed in and extracted from E. coli as a recombinant protein, and then incubated in vitro to form insoluble α-synuclein aggregates. The α-synuclein aggregates were then inoculated into the striatum of a mouse. […] Note that the inoculation of the α-synuclein aggregates into the striatum of the mouse was carried out in the following manner. First, hair on the head of a 9-week-old C57/BL/6 male mouse which had been anesthetized with 1.5% (v/v) isoflurane was removed, and the scalp was disinfected with isodine, followed by application of xylocaine and incision in the scalp to expose the skull. Then, a hole was drilled in the skull at a position of 0.05 mm posterior to the bregma and 2 mm lateral to the midline, and 3 μl of an α-synuclein fibril solution (mouse α-synuclein fibril (4 mg/ml) in saline) was injected into a position […] ventral to the brain surface with use of a glass pipette. The scalp was then returned and sutured.
PET scanning was carried out with use of a micro PET Focus 220 animal scanner (Siemens Medical Solutions), which provided 95 slices each having a thickness of 0.851 mm (center thickness), a […]. Before the scanning, an α-synuclein fibril-inoculated mouse and a physiological saline-injected mouse (control) were each anesthetized with 1.5% (v/v) isoflurane. […]

α-synuclein aggregates [2] = target: α-synuclein aggregates (Homo sapiens, UniProt P37840); experiment: In vitro fluorescence microscope measurement, amygdala sections of DLB patient brain; set-up: α-synuclein aggregates formed in the brain of the DLB patient; from tissue; host or cells: post-mortem human brain: amygdala of DLB patient (sections or homogenate); cerebellum of MSA patient; conditions: 30 μM test compound
From the text: Postmortem human brains were obtained in autopsies carried out with respect to a patient with dementia with Lewy bodies (DLB) and a patient with Alzheimer's disease (AD). In a cryostat (HM560, Carl Zeiss), frozen tissue from the DLB patient was sliced into sections each having a thickness of 20 μm. Brain tissue from the AD patient was fixed in 10% neutral buffered formalin, embedded in a paraffin block, and sliced into sections each having a thickness of 6 μm.
Postfixed fresh frozen sections of amygdala tissue obtained from the brain of the DLB patient and deparaffinized sections of formalin-fixed paraffin-embedded middle frontal gyrus tissue obtained from the brain of the AD patient were used. Each brain section and a 30 μM test compound were incubated in a 50% ethanol solution at room temperature for 30 minutes. Thereafter, the section was washed with a 50% ethanol solution for 5 minutes and with ultrapure water for 3 minutes. This washing was carried out twice. After the section was mounted in a mounting medium (VECTASHIELD H-1000, Vector Laboratories), an image of a lesion-enriched area on the section was obtained with use of a fluorescence microscope (DM4000, Leica, excitation wavelength: 391 nm to 437 nm). In FIG. 1, each arrowhead indicates fluorescence from the compound binding to α-synuclein aggregates in the brain of the DLB patient, each arrow indicates fluorescence from the compound binding to amyloid-β aggregates in the brain of the AD patient, and an asterisk indicates fluorescence from the compound binding to tau aggregates in the brain of the AD patient. The fluorescence intensities of lesion-enriched areas and lesion-free areas (background) were quantified with use of analysis software (Image J). Note that SPAL-T-05 and SPAL-T-06 were each used as the test compound. Note also that BF-227 (2-(2-[2-dimethylaminothiazol-5-yl]ethenyl)-6-(2-[fluoro]ethoxy)benzoxazole (catalog No.: NP039-0)) and PBB3 (2-((1E,3E)-4-(6-(methylamino)pyridin-3-yl)buta-1,3-dienyl)benzo[d]thiazol-6-ol) (catalog No.: NP039-0), each available from NARD INSTITUTE, LTD., were each used as a control compound.

CNc1cnc(C#C/C=C/c2nc3ccc(OCC(O)CF)cc3s2)cn1 (stereo not drawn) [SPAL-T-06, (E)-1-fluoro-3-((2-(4-(5-(methylamino)pyrazin-2-yl)but-1-en-3-yn-1-yl)benzo[d]thiazol-6-yl)oxy)propan-2-ol]
brain-entering property / clearance rate from the brain (PET) (α-synuclein aggregates [1]): adequate brain-entering property or an adequate clearance rate from the brains
binding to α-synuclein aggregates formed in the brain of the DLB patient (fluorescence) (α-synuclein aggregates [2]; 50% ethanol, room temperature, 30 minutes, amygdala sections): reactivity greater than that of PBB3
binding selectivity: α-synuclein aggregates (DLB brain) versus tau aggregates or amyloid-β aggregates (AD brain) (α-synuclein aggregates [2]; fluorescence of lesion-enriched vs lesion-free areas): greater than binding of each of SPAL-T-06 and SPAL-T-05 to tau aggregates or amyloid-β aggregates
